PubChem BioAssay (NCI)
Several values for one entry are separate records, joined by “and”; a condition that tells them apart may be missing. Identical values can stand only once.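 Briefly, cells in 96-well plates were exposed to five compound concentrations for 48 h, and endpoints were estimated by linear interpolation. At the GI50, growth is halved. TGI: total growth inhibition.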

Tests used:
Assay in all cases: DTP human tumour cell line panel, 48 h
EKVX NSCLC = system: EKVX NSCLC
NCI-H23 lung = system: NCI-H23 lung
SF-539 CNS = system: SF-539 CNS
UACC-62 melanoma = system: UACC-62 melanoma
786-0 renal = system: 786-0 renal
SNB-75 CNS = system: SNB-75 CNS
A498 renal = system: A498 renal
U251 CNS = system: U251 CNS
RPMI-8226 leukemia = system: RPMI-8226 leukemia
OVCAR-5 ovarian = system: OVCAR-5 ovarian

Structure (SMILES)	GI50 (EKVX NSCLC)	TGI (EKVX NSCLC)	GI50 (NCI-H23 lung)	TGI (NCI-H23 lung)	GI50 (SF-539 CNS)	TGI (SF-539 CNS)	GI50 (UACC-62 melanoma)	TGI (UACC-62 melanoma)	GI50 (786-0 renal)	TGI (786-0 renal)	GI50 (SNB-75 CNS)	TGI (SNB-75 CNS)	GI50 (A498 renal)	TGI (A498 renal)	GI50 (U251 CNS)	TGI (U251 CNS)	GI50 (RPMI-8226 leukemia)	TGI (RPMI-8226 leukemia)	GI50 (OVCAR-5 ovarian)	TGI (OVCAR-5 ovarian)
O=c1cc(-c2ccccc2)nc2cc(-c3ccco3)[nH]n12	15.6 µM	78.3 µM	13.2 µM	89.1 µM	13.3 µM	78.9 µM	5.66 µM	> 100 µM	31 µM	> 100 µM	12.5 µM	> 100 µM	3.6 µM	28.6 µM	4.74 µM	> 100 µM	13.7 µM	89.9 µM	42.2 µM	> 100 µM
COC(=O)c1cc(NC(=O)CN(CCN(CC(=O)O)CC(=O)Nc2ccc(O)c(C(=O)OC)c2)CC(=O)O)ccc1O	> 100 µM	> 100 µM	78.9 µM	> 100 µM	29.4 µM	> 100 µM	48.2 µM	> 100 µM	35.2 µM	> 100 µM	55.3 µM	> 100 µM	71.7 µM	> 100 µM	43.8 µM	> 100 µM	> 100 µM	> 100 µM	> 100 µM	> 100 µM
Cc1nc2sc(C(=O)Nc3cccc(Cl)c3C)c(N)c2cc1C(=O)c1ccccc1	0.292 µM	> 50 µM	1.14 µM	> 50 µM	0.159 µM	0.915 µM	0.246 µM	> 50 µM	0.296 µM	> 50 µM	0.121 µM		0.124 µM	1.64 µM	0.219 µM	> 50 µM	0.249 µM	> 15.9 µM	1.26 µM	> 50 µM
CCNC(=O)c1ccc2c(c1)nc(-c1ccc(Cl)cc1)n2-c1cc(C(C)(C)C)[nH]n1	3.14 µM	> 100 µM	2.78 µM	20.3 µM	3 µM	11 µM	2.05 µM	7.61 µM	3.48 µM	47.4 µM	2.17 µM	12 µM	2.24 µM	6.53 µM	3.28 µM	12.2 µM	2.84 µM	14.1 µM	5.91 µM	40.1 µM
NCC(=O)NC(CO)C(=O)O (centres undefined)		> 100 µM		> 100 µM		> 100 µM		> 100 µM		> 100 µM		> 100 µM		> 100 µM		> 100 µM		> 100 µM		> 100 µM
CCOC1=C2C(C)(CCC3[C@@]4(C)C=CC(=O)C(C)(C)C4CC(O)[C@@]23C)C(c2ccoc2)C1=O (some centres undefined)		67.7 µM		34.8 µM		41.7 µM		57.7 µM		39.8 µM		> 100 µM		33.9 µM		34.8 µM		49.8 µM		36 µM
CC#CC(=O)N[C@H]1CCCN(c2c(F)cc(C(N)=O)c3[nH]c(C)c(C)c23)C1	18.3 µM	45.9 µM	19.5 µM	41.8 µM	13.3 µM	28.4 µM	14.4 µM	28.5 µM	19 µM	56.6 µM	7.66 µM	21.3 µM	12 µM	26.6 µM	17.3 µM	36.3 µM	16.5 µM	44.8 µM	23 µM	88.5 µM
COc1cc(/C=N/Nc2ncnc3c2cnn3Cc2ccccc2)ccc1O	> 25 µM	> 25 µM	11.9 µM	> 25 µM	8.12 µM	24.4 µM	10.4 µM	> 25 µM	6.92 µM	18.8 µM	3.29 µM	11.4 µM	> 18.3 µM	> 25 µM	6.51 µM	> 25 µM	> 18.5 µM	> 25 µM	> 25 µM	> 25 µM
CCCN(CCC)c1ccc(/C=N/NC(=O)c2cccnc2)cc1	26.8 µM	> 100 µM	36.1 µM	> 100 µM	18.8 µM	61.4 µM	34.7 µM	> 100 µM	32.5 µM	94.8 µM	22 µM	68.1 µM	10.2 µM	22.3 µM	26.9 µM	> 100 µM	80.5 µM	> 100 µM	38 µM	> 100 µM
COc1cc([N+](=O)[O-])c(OC)cc1-c1nc2n(c1/C(N)=N/C(=N)N)CCS2	40.3 µM	> 100 µM	23.3 µM	87.1 µM	26.2 µM	> 100 µM	75.5 µM	> 100 µM	25.1 µM	> 100 µM	6.76 µM	> 100 µM	> 100 µM	> 100 µM	9.12 µM	> 100 µM	> 100 µM	> 100 µM	> 100 µM	> 100 µM
COc1cc(C(=O)Nc2cc(O)c(C/C=C(\C)CCC=C(C)C)c(O)c2)cc2c1O[C@]1(C)CC[C@@H](O)C(C)(C)[C@H]1C2	1.12 µM and 1.16 µM	14.8 µM	1.61 µM and 2.09 µM	19.7 µM	0.00623 µM	0.411 µM and 0.658 µM	0.0488 µM and 0.0463 µM	0.803 µM and 1.79 µM	0.00947 µM and 0.0168 µM	6.07 µM	0.00898 µM and < 0.0111 µM	7.56 µM	0.0623 µM and 0.0258 µM	1.72 µM and 0.889 µM	0.00961 µM and < 0.0175 µM	6.15 µM	0.00911 µM and 0.0197 µM	0.0806 µM and 0.0958 µM	2.89 µM and 3.49 µM	21.6 µM
